# Laboratory results reported in patent US20210196714A1, “COMPOSITIONS AND METHODS FOR TREATING DISORDERS CHARACTERIZED WITH ABERRANT RAS/MAPK SIGNALING” (Duke University, priority 2018, published 2021).
# “Also recorded” adds a separate entry of the source.
# Legend:
# ERK2 = ERK2 (Homo sapiens, UniProt P28482); details: see WO 2002064586; cited from earlier work
# [1] = Solubility test in egg water; assay type: physicochemical; details: DMSO stock diluted in water (100×)
# Procedure: To guard against possible bias, the tool and negative control compounds were interspersed across the experiment and the zebrafish phenotyping team was blinded to the identity of each compound. Typical of small molecule storage, each of the 29 compounds was dissolved in dimethyl sulfoxide (DMSO). Therefore, such compounds were first diluted in water (100×) and its solubility tested in egg water; three compounds were insoluble and were thus removed from further testing (see, FIG. 1A). Next, each compound was diluted serially with egg water and toxicity tested by assaying the percentage of abnormal or dead embryos across three different concentrations (10 μM, 1 μM, 100 nM; FIG. 1B).
# kmt2d-CRISPR embryos = assay: Brain cell proliferation (pHH3 immunostaining) in kmt2d-mosaic mutants; assay type: in vivo, zebrafish; details: 100 nM, 2 dpf, listed as dmDf
# Description: (§1) Intellectual disability represents a major phenotype in KS, with some studies reporting almost 90% of patients to be affected (see, Wessels, M. W., et al. Clin Dysmorphol 11, 95-102 (2002)). […] Previous studies have shown that defects in proliferation in the developing zebrafish brain can be a proxy for neurodevelopmental and neurocognitive traits, especially in the context of microcephaly (see, Borck, G. et al. Genome Res 25, 609 (2015); Brooks, S. S. et al. Genetics 198, 723-33 (2014); O'Rawe, J. A. et al. Am J Hum Genet 97, 922-32 (2015); Wortmann, S. B. et al. Am J Hum Genet 96, 245-57 (2015)), a phenotype reported commonly in KS (see, Matsumoto, N. & Niikawa, N. Am J Med Genet C Semin Med Genet 117C, 57-65 (2003)).
# (§2) For convergence and extension (CE) phenotyping, embryos were scored as described (see, Leitch, C. C. et al. Nat Genet 40, 443-8 (2008)) at the 8-10 somite stage, and images were captured using an AZ100 microscope and NIS Elements software (Nikon). […] The distance between Meckel's (MK) and ceratohyal (CH) cartilages was measured on ventral bright field images with Image J (NIH). […] Fluorescence signal on embryo heads was imaged with the Nikon AZ100 microscope and DS-Qi1MC digital camera using […] Z-stacks to generate extended depth of focus images. Cell numbers were quantified using the ImageJ ICTN plugin (NIH). […]
# rap1-CRISPR embryos = assay: Brain cell proliferation (pHH3 immunostaining) in rap1-mosaic mutants; assay type: in vivo, zebrafish; details: 100 nM, 2 dpf, listed as dmDf
# Description: as §1, §2
# [2] = test system: kmt2d+/−×kmt2d+/− progeny; assay: CE defect in stable kmt2d mutant intercross progeny; assay type: in vivo, zebrafish; details: 100 mM dmDf, 1 dpf
# Description: (§3) FIG. 12: Treatment with dmDf rescues the defects of stable kmt2d mutant. kmt2d+/− adults were in-crossed and the embryos were then collected at 1 dpf, 2 dpf and 5 dpf to assess dmDf efficacy. […] Error bars show SEM (standard error of the mean).
# (§4) Although the small molecule testing data in CRISPR F0 mosaic models are consistent with morphant phenotypes (and rescue), experiments recognized the necessity of testing the potential efficacy of dmDf in a stable genetic model that is a better genotypic proxy to human patients. […] In addition to examining proliferation of cells in the brain, experiments assessed whether neural differentiation is affected (see, Van Laarhoven, P. M. et al. Hum Mol Genet 24, 4443-53 (2015)).
# as §2
# [3] = test system: kmt2d+/−×kmt2d+/− progeny; assay: Neural differentiation (sox2/huc staining) in stable kmt2d mutant; assay type: in vivo, zebrafish; details: 100 mM dmDf, 2 dpf
# Description: as §3, §4, §2
# [4] = test system: zebrafish kmt2d morphants; assay: Rescue of convergent-extension (CE) phenotype in kmt2d morphants; assay type: in vivo; details: dose response
# Sequence of ERK2 (P28482 whole entry, species assumed): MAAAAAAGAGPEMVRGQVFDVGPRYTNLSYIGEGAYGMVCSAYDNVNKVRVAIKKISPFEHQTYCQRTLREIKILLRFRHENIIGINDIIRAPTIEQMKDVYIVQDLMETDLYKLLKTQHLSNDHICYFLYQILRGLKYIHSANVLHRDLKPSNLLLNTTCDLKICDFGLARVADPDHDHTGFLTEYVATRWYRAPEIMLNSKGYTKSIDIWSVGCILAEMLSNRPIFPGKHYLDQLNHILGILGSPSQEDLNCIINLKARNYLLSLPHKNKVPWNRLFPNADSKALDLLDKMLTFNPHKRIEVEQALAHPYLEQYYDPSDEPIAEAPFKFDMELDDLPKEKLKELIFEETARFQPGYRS
smiles,measurement,setting,value
"CC[C@@H](CO)Nc1ncc(C)c(-c2c[nH]c(C(=O)N[C@H](CO)c3cccc(Cl)c3)c2)n1 [Compound 2, N-((S)-1-(3-chlorophenyl)-2-hydroxyethyl)-4-(2-(((S)-1-hydroxybutan-2-yl)amino)-5-methylpyrimidin-4-yl)-1H-pyrrole-2-carboxamide]",ERK2 inhibitor potency,ERK2,potent
"CC(C)c1nc(-c2cccc(NS(=O)(=O)c3c(F)cccc3F)c2F)c(-c2ccnc(N)n2)s1 [Compound 8, desmethyl-Dabrafenib]",solubility tested in egg water,[1],soluble
same,total number of proliferating (pHH3+) cells in brain,kmt2d-CRISPR embryos,can be rescued; also recorded: restored the total number of proliferating cells to wild type levels
same,total number of proliferating (pHH3+) cells in brain,rap1-CRISPR embryos,can be rescued; also recorded: restored the total number of proliferating cells to wild type levels
same,CE defect,[2],ameliorates significantly
same,embryos showing Class I or Class II CE defects,[2]; p<0.001,20%
same,perturbed differentiation (organization of sox2+ and huc+ cells),[3],appears to ameliorate; also recorded: attenuated this pathology
same,CE defects at 50 nM and 100 nM doses,[4]; 50 and 100 nM,Significant rescue
same,CE rescue at dosages beyond 100 nM,[4]; above 100 nM up to 1 μM,higher dosages did not improve efficacy any further
